Experimental data as given in patent US8334382B2, “Substituted biaryl piperazinyl-pyridine analogues” (Neurogen Corporation, priority 2004, dated 2012).

Biological target: T1, human capsaicin receptor (Homo sapiens, UniProt Q8NER1)
T1 construct: expressed in transfected cells; host or cells: HEK293, stably transfected with pBK-CMV construct
Assay: Calcium mobilization assay, determination of antagonist activity
Type: cell-based
Conditions: capsaicin at EC50; cells expressing human capsaicin receptor; Example 6
Summary of the method: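 IC50 is the antagonist level giving a 50% drop in the capsaicin (EC50) calcium signal, read by FLIPR in Fluo-3 AM-loaded stable HEK293 lines bearing full-length human receptor. Compounds at 1-5 µM final were preincubated 0.5-6 h, room temperature, dark, in KRH pH 7.4.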

T1 sequence (Q8NER1 whole entry): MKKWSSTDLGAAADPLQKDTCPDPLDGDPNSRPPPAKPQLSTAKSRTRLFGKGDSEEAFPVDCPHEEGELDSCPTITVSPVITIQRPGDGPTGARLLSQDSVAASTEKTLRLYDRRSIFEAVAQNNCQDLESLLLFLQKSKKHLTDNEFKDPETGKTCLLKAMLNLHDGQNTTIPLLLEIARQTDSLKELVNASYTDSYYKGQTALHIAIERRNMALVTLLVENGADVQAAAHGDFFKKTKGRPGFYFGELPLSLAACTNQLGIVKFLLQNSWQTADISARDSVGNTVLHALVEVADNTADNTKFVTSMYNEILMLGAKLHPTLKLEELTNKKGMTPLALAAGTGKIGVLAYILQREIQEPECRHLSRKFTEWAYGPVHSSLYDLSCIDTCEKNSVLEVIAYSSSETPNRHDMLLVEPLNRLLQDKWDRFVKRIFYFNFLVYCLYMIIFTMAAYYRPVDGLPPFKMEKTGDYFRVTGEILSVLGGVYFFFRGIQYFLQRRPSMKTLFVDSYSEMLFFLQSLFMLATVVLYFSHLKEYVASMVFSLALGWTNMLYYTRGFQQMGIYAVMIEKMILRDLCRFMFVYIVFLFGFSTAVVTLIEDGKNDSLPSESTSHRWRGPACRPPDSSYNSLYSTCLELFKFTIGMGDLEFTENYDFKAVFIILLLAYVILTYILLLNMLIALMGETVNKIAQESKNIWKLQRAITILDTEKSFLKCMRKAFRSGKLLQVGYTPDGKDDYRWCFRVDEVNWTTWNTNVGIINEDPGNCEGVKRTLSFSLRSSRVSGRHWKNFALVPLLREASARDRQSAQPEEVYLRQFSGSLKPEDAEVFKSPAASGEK

SMILES: COCC(C)NC(=O)c1cnc(N2CCN(c3cc(-c4ccc(F)cc4)nc(N4CCCC4C)n3)CC2)c(C)c1 (stereo not drawn) [Example 117, 6-{4-[6-(4-fluorophenyl)-2-(2-methylpyrrolidin-1-yl)pyrimidin-4-yl]piperazin-1-yl}-N-(2-methoxy-1-methylethyl)-5-methylnicotinamide]
- IC50: ≤ 1000 nM

SMILES: Cc1cc(C(=O)NCc2cccs2)cnc1N1CCN(c2cc(-c3ccc(F)cc3)nc(N3CCCC3C)n2)CC1 (stereo not drawn) [Example 118, 6-{4-[6-(4-fluorophenyl)-2-(2-methylpyrrolidin-1-yl)pyrimidin-4-yl]piperazin-1-yl}-5-methyl-N-(2-thienylmethyl) nicotinamide]
- IC50: ≤ 1000 nM

SMILES: CCOCCNC(=O)c1cnc(N2CCN(c3cc(-c4ccc(F)cc4)nc(N4CCCC4C)n3)CC2)c(C)c1 (stereo not drawn) [Example 119, N-(2-ethoxyethyl)-6-{4-[6-(4-fluorophenyl)-2-(2-methylpyrrolidin-1-yl)pyrimidin-4-yl]piperazin-1-yl}-5-methylnicotinamide]
- IC50: ≤ 1000 nM

SMILES: Cc1cc(C(=O)NCC(F)(F)F)cnc1N1CCN(c2cc(-c3ccc(F)cc3)nc(N3CCCC3C)n2)CC1 (stereo not drawn) [Example 120, 6-{4-[6-(4-fluorophenyl)-2-(2-methylpyrrolidin-1-yl)pyrimidin-4-yl]piperazin-1-yl}-5-methyl-N-(2,2,2-trifluoroethyl)nicotinamide]
- IC50: ≤ 1000 nM

SMILES: Cc1cc(C(=O)N(C)Cc2ccccc2)cnc1N1CCN(c2cc(-c3ccc(F)cc3)nc(N3CCCC3C)n2)CC1 (stereo not drawn) [Example 121, N-benzyl-6-{4-[6-(4-fluorophenyl)-2-(2-methylpyrrolidin-1-yl)pyrimidin-4-yl]piperazin-1-yl}-N,5-dimethylnicotinamide]
- IC50: ≤ 1000 nM

SMILES: Cc1cc(C(=O)N2CCCC2)cnc1N1CCN(c2cc(-c3ccc(F)cc3)nc(N3CCCC3C)n2)CC1 (stereo not drawn) [Example 122, 4-(4-fluorophenyl)-2-(2-methylpyrrolidin-1-yl)-6-{4-[3-methyl-5-(pyrrolidin-1-ylcarbonyl)pyridin-2-yl]piperazin-1-yl}pyrimidine]
- IC50: ≤ 1000 nM

SMILES: Cc1cc(C(=O)N2CCCCC2)cnc1N1CCN(c2cc(-c3ccc(F)cc3)nc(N3CCCC3C)n2)CC1 (stereo not drawn) [Example 123, 4-(4-fluorophenyl)-6-{4-[3-methyl-5-(piperidin-1-ylcarbonyl)pyridin-2-yl]piperazin-1-yl}-2-(2-methylpyrrolidin-1-yl)pyrimidine]
- IC50: ≤ 1000 nM

SMILES: Cc1cc(C(=O)N2CCOCC2)cnc1N1CCN(c2cc(-c3ccc(F)cc3)nc(N3CCCC3C)n2)CC1 (stereo not drawn) [Example 124, 4-[(6-{4-[6-(4-fluorophenyl)-2-(2-methylpyrrolidin-1-yl)pyrimidin-4-yl]piperazin-1-yl}-5-methylpyridin-3-yl)carbonyl]morpholine]
- IC50: ≤ 1000 nM

SMILES: Cc1cc(C(=O)N2CCC(C)CC2)cnc1N1CCN(c2cc(-c3ccc(F)cc3)nc(N3CCCC3C)n2)CC1 (stereo not drawn) [Example 125, 4-(4-fluorophenyl)-6-(4-{3-methyl-5-[(4-methylpiperidin-1-yl)carbonyl]pyridin-2-yl}piperazin-1-yl)-2-(2-methylpyrrolidin-1-yl)pyrimidine]
- IC50: ≤ 1000 nM

SMILES: Cc1cc(C(=O)N2CCCCCC2)cnc1N1CCN(c2cc(-c3ccc(F)cc3)nc(N3CCCC3C)n2)CC1 (stereo not drawn) [Example 126, l-[(6-{4-[6-(4-fluorophenyl)-2-(2-methylpyrrolidin-1-yl)pyrimidin-4-yl]piperazin-1-yl}-5-methylpyridin-3-yl)carbonyl]azepane]
- IC50: ≤ 1000 nM

SMILES: Cc1cc(C(=O)N2CCSCC2)cnc1N1CCN(c2cc(-c3ccc(F)cc3)nc(N3CCCC3C)n2)CC1 (stereo not drawn) [Example 127, 4-[(6-{4-[6-(4-fluorophenyl)-2-(2-methylpyrrolidin-1-yl)pyrimidin-4-yl]piperazin-1-yl}-5-methylpyridin-3-yl)carbonyl] thiomorpholine]
- IC50: ≤ 1000 nM

SMILES: Cc1cc(C(=O)N2CCCCC2C)cnc1N1CCN(c2cc(-c3ccc(F)cc3)nc(N3CCCC3C)n2)CC1 (stereo not drawn) [Example 128, 4-(4-fluorophenyl)-6-(4-{3-methyl-5-[(2-methylpiperidin-1-yl)carbonyl]pyridin-2-yl}piperazin-1-yl)-2-(2-methylpyrrolidin-1-yl)pyrimidine]
- IC50: ≤ 1000 nM
